The source of these data is patent US20250129096A1, “ANNULATED 2-AMINO-3-CYANO THIOPHENES AND DERIVATIVES FOR THE TREATMENT OF CANCER” (Boehringer Ingelheim Int'l GmbH Corp., priority 2021, published 2025).

In series [1] the test system is NCI-H2122 cells (NSCLC, G12C). The series is described as follows: NCI-H2122 CTG proliferation assay (120 h). The series is classed as cell-based. The following applies: Homo sapiens, CellTiter-Glo. As for the experimental part:
The CTG assay is designed to measure quantitatively the proliferation of NCI-H2122 cells (ATCC CRL-5985), using the CellTiter Glow Assay Kit (Promega G7571). Cells are grown in RPMI medium (ATCC) supplemented with Fetal Calf Serum (Life Technologies, Gibco BRL, Cat. No. 10270-106). On “day 0” 200 NCI-H2122 cells are seeded in 60 μL RPMI ATCC+10% FCS+ Penstrep in a black 384-well plate, flat and clear bottom (Greiner, PNr. 781091). Cells are then incubated in the plates at 37° C. in a CO2 incubator overnight. On day 1, compounds (10 mM stock in DMSO) are added with the ECHO acoustic liquid handler system (Beckman Coulter), including DMSO controls. Plates are incubated for 120 h, and cell viability is measured using CellTiter-Glo luminescent cell viability reagent (Promega product code G7570). Viability (stated as percent of control) is defined as relative luminescence units RLU of each well divided by the RLU of cells in DMSO controls. IC50 values are determined from viability measurements by non-linear regression using a four-parameter model.
(In general: In ATP-based viability assays light output follows the ATP content of the culture.)

Another series has as its target KRAS G12C Ba/F3 cells (Homo sapiens, UniProt P01116, G12C, cells depend on it). The series is described as follows: Ba/F3 proliferation assay, KRAS G12C. It is filed as cell-based. The following applies: 72 h, AlamarBlue; read-out: KRAS G12C Ba/F3 IC50. As to the method: (§1) To generate KRASG12-dependent Ba/F3 models, Ba/F3 cells are transduced with retroviruses containing vectors that harbor KRASG12 isoforms. Platinum-E cells (Cell Biolabs) are used for retrovirus packaging. Retrovirus is added to Ba/F3 cells. To ensure infection, 4 μg/mL polybrene is added and cells are spinfected. […] Cells with an infection efficiency of 10% to 20% are further cultivated and puromycin selection with 1 μg/mL is initiated. As a control, parental Ba/F3 cells are used to show selection status. Selection is considered successful when parental Ba/F3 cells cultures died. To evaluate the transforming potential of KRASG12 mutations, the growth medium is no longer supplemented with IL-3. Ba/F3 cells harboring the empty vector are used as a control. Approximately ten days before conducting the experiments, puromycin is left out. […] All treatments are performed in technical duplicates. […] AlamarBlue™(ThermoFisher), a viability stain, is added and fluorescence measured in the PerkinElmer Envision HTS Multilabel Reader. The raw data are imported into and analyzed with the Boehringer Ingelheim proprietary software MegaLab (curve fitting based on the program PRISM, GraphPad Inc.).

A short description of series [2]: Metabolic (microsomal) stability assay, HLM. It is filed as in vitro ADME. The following applies: human liver microsomes, 1 μM test compound, predicted clearance as percent of liver blood flow. As to the method: The metabolic degradation of the test compound is assayed at 37° C. with pooled liver microsomes (mouse (MLM), rat (RLM) or human (HLM)). The final incubation volume of 48 μL per time point contains TRIS buffer (pH 7.5; 0.1 M), magnesium chloride (6.5 mM), microsomal protein (0.5 mg/mL for mouse/rat, 1 mg/mL for human specimens) and the test compound at a final concentration of 1 μM. Following a short preincubation period at 37° C., the reactions are initiated by addition of 12 μL beta-nicotinamide adenine dinucleotide phosphate, reduced form (NADPH, 10 mM) and terminated by transferring an aliquot into solvent after different time points (0, 5, 15, 30, 60 min). Additionally, the NADPH-independent degradation is monitored in incubations without NADPH, terminated at the last time point by addition of acetonitrile. The quenched incubations are pelleted by centrifugation (4,000 rpm, 15 min). An aliquot of the supernatant is assayed by LC-MS/MS to quantify the concentration of parent compound in the individual samples.
In vitro intrinsic clearance (CLint, in vitro) is calculated from the time course of the disappearance of the test drug during the microsomal incubation. Each plot is fitted to the first-order elimination rate constant as C(t)=C0*exp(−ke*t), where C(t) and C0 are the concentration of unchanged test drug at incubation time t and that at preincubation and ke is the disappearance rate constant of the unchanged drug. Subsequently, CLint, in vitro (μL min^−1·amount protein) values are converted to predicted CLint, in vivo (mL min^−1 kg^−1) from incubation parameters according to the equation CLint, in vivo=CLint, in vitro×(incubation volume (ml)/amount protein (mg))×(amount protein (mg)/g liver tissue)×(liver weight/body wt.). For better across species comparison the predicted clearance is expressed as percent of the liver blood flow [% QH] (mL min^−1 kg^−1) in the individual species. In general, high stability (corresponding to low % QH) of the compounds across species is desired.

The test system of series [3] is AsPC-1 cells (pancreatic cancer, G12D). Kind of series: AsPC-1 CTG proliferation assay (120 h). It is filed as cell-based. The following applies: Homo sapiens, ASPC1, CellTiter-Glo. As for the experimental part:
The CTG assay is designed to measure quantitatively the proliferation of AsPC-1 cells (ATCC […]), using the CellTiter Glow Assay Kit (Promega G7571). Cells are grown in RPMI medium (ATCC) supplemented with Fetal Calf Serum (Life Technologies, Gibco BRL, Cat. No. 10270-106). On “day 0” 2000 AsPC-1 cells are seeded in 60 μL RPMI ATCC+10% FCS+ Penstrep in a 384-well plate, flat and clear bottom (Greiner, PNr. 781091). Cells are then incubated in the plates at 37° C. in a CO2 incubator overnight. On day 1, compounds (10 mM stock in DMSO) are added with the ECHO acoustic liquid handler system (Beckman Coulter), including DMSO controls. Plates are incubated for 120 h, and cell viability is measured using CellTiter-Glo luminescent cell viability reagent (Promega product code G7570). Viability (stated as percent of control) is defined as relative luminescence units RLU of each well divided by the RLU of cells in DMSO controls. IC50 values are determined from viability measurements by non-linear regression using a four-parameter model.

In another series the target is KRAS G12V Ba/F3 cells (Homo sapiens, UniProt P01116, G12V, cells depend on it). Kind of series: Ba/F3 proliferation assay, KRAS G12V. It is filed as cell-based. The following applies: 72 h, AlamarBlue; read-out: KRAS G12V Ba/F3 IC50. As for the experimental part:
as §1
In general terms: Resazurin is reduced to fluorescent resorufin, in cell work by metabolically active cells.

Chain of KRAS G12C Ba/F3 cells (P01116 whole entry G12C, canonical isoform): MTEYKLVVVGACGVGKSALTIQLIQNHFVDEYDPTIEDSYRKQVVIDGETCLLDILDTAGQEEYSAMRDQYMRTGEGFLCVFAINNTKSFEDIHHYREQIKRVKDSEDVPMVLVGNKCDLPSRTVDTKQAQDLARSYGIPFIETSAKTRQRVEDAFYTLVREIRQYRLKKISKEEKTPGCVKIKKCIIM
Chain of KRAS G12V Ba/F3 cells (P01116 whole entry G12V): as the sequence (P01116 whole entry G12C, canonical isoform) above, with C12V counted along it

The IC50 is the concentration at which inhibition is half-maximal. In the case of `C[C@H]1CNCCCN1c1nccc(-c2noc3c2CCC[C@@]32CCCc3sc(N)c(C#N)c32)n1` (single isomer, unassigned) [IIb-5], the IC50 came out at 6360 nM in series [1] and 3620 nM in series [3]. For the same compound, on KRAS G12C Ba/F3 cells, the GI50 turned out to be 88 nM. The “HLM QH” value in series [2] is listed as <24%.

As for `CC1Cc2c(-c3ccnc(N4CCCNC[C@@H]4C)n3)noc2C2(CCCc3sc(N)c(C#N)c32)C1` (some centres unmarked) [IIb-1], the IC50 was 3920 nM in series [1] and 3570 nM in series [3]. Further, the GI50 at KRAS G12C Ba/F3 cells came out at 666 nM; at KRAS G12V Ba/F3 cells it was 337 nM. Further, the “HLM QH” value in series [2] is listed as <24%.

On to `C[C@H]1CNCCCN1c1nccc(-c2noc3c2CC(F)(F)CC32CCCc3sc(N)c(C#N)c32)n1` (some centres unmarked) [IIb-2], for which the results for the half-inhibitory concentration (IC50) in series [1] and in series [3] were 4850 nM and 5110 nM, respectively. Moreover, the GI50 is 507 nM at KRAS G12C Ba/F3 cells and 478 nM at KRAS G12V Ba/F3 cells. The “HLM QH” value in series [2] is given as 39%.

Consider `C[C@H](Oc1ccnc(-c2noc3c2CCC[C@@]32CCCc3sc(N)c(C#N)c32)n1)[C@@H]1CCCN1C` [IIb-3], for which the results for the GI50 on KRAS G12C Ba/F3 cells and at KRAS G12V Ba/F3 cells were 23 nM and 25 nM, respectively. The “HLM QH” value in series [2] is on record as 64%. In series [3], this compound had an IC50 of 650 nM.

Turning to `C[C@H]1CNCCCN1c1nccc(-c2noc3c2CSCC32CCCc3sc(N)c(C#N)c32)n1` (some centres unmarked) [IIb-4], the results for the IC50 in series [1] and in series [3] were 4020 nM and 4130 nM, respectively. The values for the GI50 on KRAS G12C Ba/F3 cells and on KRAS G12V Ba/F3 cells were 485 nM and 138 nM, respectively.

`C[C@H]1CNCCCN1c1nccc(-c2noc3c2OCCC32CCCc3sc(N)c(C#N)c32)n1` (some centres unmarked) [IIb-7]: the IC50 in series [1] is 1940 nM; in series [3], 2800 nM. The results for the GI50 on KRAS G12C Ba/F3 cells and at KRAS G12V Ba/F3 cells were 131 nM and 136 nM, respectively. Moreover, the “HLM QH” value in series [2] is listed as <24%.

`C[C@H](Oc1nccc(-c2noc3c2CCC[C@@]32CCCc3sc(N)c(C#N)c32)n1)[C@@]1(C)CCCN1C` [IIe-1]: the IC50 was 6380 nM in series [1] and 5520 nM in series [3]. Also, the GI50 on KRAS G12C Ba/F3 cells amounted to 254 nM; at KRAS G12V Ba/F3 cells it was 203 nM. The “HLM QH” value in series [2] is recorded as >88%.

Regarding `C[C@H]1CNCCN1c1nccc(-c2noc3c2CCC[C@@]32CCCc3sc(N)c(C#N)c32)n1` [IIf-1], the IC50 in series [1] was 2860 nM; in series [3] it was 1510 nM. Besides, in series [2], the “HLM QH” value is given as 29%.

`C[C@@H]1NCCCN(c2nccc(-c3onc4c3CCC[C@@]43CCCc4sc(N)c(C#N)c43)n2)[C@H]1C` [Ib-2]: the IC50 in series [1] was 8350 nM; in series [3], 5970 nM. Further, the GI50 at KRAS G12C Ba/F3 cells came to 126 nM. Besides, the “HLM QH” value in series [2] is 51%.

Turning to `C[C@H]1CNCCCN1c1ncnc(-c2onc3c2CCC[C@@]32CCCc3sc(N)c(C#N)c32)n1` [Ib-4], the IC50 in series [1] and in series [3] was > 25000 nM throughout. For the same compound, the GI50 at KRAS G12C Ba/F3 cells stood at 295 nM. Further, in series [2], the “HLM QH” value is 34%.

`C[C@H]1[C@@H]2CCCN2CCCN1c1nccc(-c2onc3c2CCC[C@@]32CCCc3sc(N)c(C#N)c32)n1` [Id-1]: the figures for the IC50 in series [1] and in series [3] were 9460 nM and 3570 nM, respectively. The GI50 on KRAS G12C Ba/F3 cells was 42 nM. In addition, the “HLM QH” value in series [2] was >88%.

As to `CO[C@@H]1C[C@@H]([C@H](C)Oc2nccc(-c3onc4c3CCC[C@@]43CCCc4sc(N)c(C#N)c43)n2)N(C)C1` [Ie-1], the IC50 in series [1] came out at 1500 nM; in series [3], 5480 nM. The values for the GI50 on KRAS G12C Ba/F3 cells and at KRAS G12V Ba/F3 cells were 43 nM and 29 nM, respectively. Also, the “HLM QH” value in series [2] is >88%.

As to `C[C@H](Oc1nccc(-c2onc3c2CCC[C@@]32CCCc3sc(N)c(C#N)c32)n1)[C@@H]1C[C@@H](F)CN1C` [Ie-2], the IC50 in series [1] stood at 1620 nM; in series [3], 2560 nM. Besides, the GI50 at KRAS G12C Ba/F3 cells amounted to 155 nM; at KRAS G12V Ba/F3 cells, 106 nM. In series [2], the “HLM QH” value is >88%.

For the compound `CCN1[C@H]2C[C@H]2C[C@H]1[C@H](C)Oc1nccc(-c2onc3c2CCC[C@@]32CCCc3sc(N)c(C#N)c32)n1` [Ie-3], the IC50 in series [1] is 5260 nM; in series [3], 8030 nM. For the same compound, the GI50 at KRAS G12C Ba/F3 cells is 49 nM; at KRAS G12V Ba/F3 cells it was 84 nM. In series [2], the “HLM QH” value was >88%.

With `CC(Oc1nccc(-c2onc3c2CCC[C@@]32CCCc3sc(N)c(C#N)c32)n1)C12CCCN1CCC2` (some centres unmarked) [Ie-5], the values for the IC50 in series [1] and in series [3] were 1220 nM and 5860 nM, respectively. Further, the GI50 amounted to 118 nM at KRAS G12C Ba/F3 cells and 92 nM at KRAS G12V Ba/F3 cells. Also, in series [2], the “HLM QH” value is 63%.

With `C[C@H]1CNCCCN1c1nccc(-c2onc3c2CCC[C@@]32CCCc3sc(N)c(C#N)c32)n1` [If-1], the values for the IC50 in series [1] and in series [3] were 10700 nM and 6680 nM, respectively. The GI50 turned out to be 134 nM on KRAS G12C Ba/F3 cells and 98 nM at KRAS G12V Ba/F3 cells. Besides, the “HLM QH” value in series [2] was 25%.

Turning to `C[C@H](Oc1nccc(-c2onc3c2CCC[C@@]32CCCc3sc(N)c(C#N)c32)n1)[C@@H]1C[C@@H]2C[C@@H]2N1` [If-2], the IC50 in series [1] and in series [3] was > 25000 nM in each case. The GI50 on KRAS G12C Ba/F3 cells is 8510 nM.

For `C[C@H](Oc1nccc(-c2onc3c2CCC[C@@]32CCCc3sc(N)c(C#N)c32)n1)[C@@H]1C[C@@H]2C[C@@H]2N1C` [Ih-1], the IC50 worked out at 7810 nM in series [1] and 4210 nM in series [3]. Also, the GI50 on KRAS G12C Ba/F3 cells stood at 72 nM; at KRAS G12V Ba/F3 cells, 94 nM. Moreover, the “HLM QH” value in series [2] is listed as >88%.
